Results taken from patent publication US12311019B2, “Vaccine composition and uses thereof” (Imugene Limited, priority 2018, dated 2025).
“Also recorded” adds a separate entry of the source.

What was measured:
[1] = tested on: rat anti-mouse PD1 monoclonal antibody (mAb) (Biolegend, clone 29F.1A12); experiment: Colony blot assay of E. coli clones expressing GST-fused overlapping mPD1 peptides; type: binding; settings: GST-fused 15-mer
Description: The protein sequence corresponding to the extracellular domain of mouse PD-1 (Q02242; Uniprot) was electronically back-translated into DNA sequences (ATG:Biosynthetics GmbH; Merzhausen, Germany). The protein-coding DNA sequences were partitioned into uniformly sized peptide-CDS as overlapping peptides in 15 amino acids (aa) length, with an offset of 3 aa, and the resulted DNA sequences were inserted into the expression vector pEPX-1 (ATG:Biosynthetics GmbH; Merzhausen, Germany). […] Expression vectors were used for transformation of E. coli strain BL21. Colonies (clones) of E. coli harbouring the expression vectors were picked from plates supplemented with Kanamycin and used for screening by colony blot assay. A colony harbouring the expression vector with no insert (i.e. control) was also picked.
The clones of interest were replicated onto nitrocellulose membranes and lysed with lysis solution (Tris-HCl pH 8.0 50 mM, Lysozyme 200 μg/ml), followed by three cycles of freezing at −80C and thawing at 37C. After the last step of thawing, the membranes were incubated with the blocking solution containing PBS-5% skim milk. The blocking solution was discarded and the membranes were incubated for 2 h at RT with rat anti-mouse PD1 monoclonal antibody (mAb) (Biolegend, clone 29F.1A12). […]

[2] = molecular target: T1, Jurkat T cells expressing mPD1 (Mus musculus, UniProt Q02242); experiment: Inhibition of anti-mouse PD1 mAb binding to mPD1-positive Jurkat T cells; type: cell-based; settings: mAb pre-incubated with different concentrations of JT-mPD1
T1 construct: expressed in transfected cells; host or cells: Jurkat E6.1 NF-kB::eGFP reporter T cells (human)
T1 sequence (Q02242 25-288): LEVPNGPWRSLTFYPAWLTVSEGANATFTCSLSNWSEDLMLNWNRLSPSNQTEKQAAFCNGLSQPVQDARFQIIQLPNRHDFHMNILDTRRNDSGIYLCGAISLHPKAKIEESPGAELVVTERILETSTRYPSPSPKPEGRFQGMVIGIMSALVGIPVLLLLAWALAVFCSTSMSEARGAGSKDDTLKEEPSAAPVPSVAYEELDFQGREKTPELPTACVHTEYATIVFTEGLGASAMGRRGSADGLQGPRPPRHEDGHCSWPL
Method: To produced T cells expressing mouse PD-1, Jurkat E6.1 NF-κB::eGFP reporter T cell line and the K562 stimulator cell line were cultured as previously described (Battin et al. PLoS One, 2017, 12(5):e0178220; PMID: 28542462). JE6.1 NF-kB::eGFP reporter cells expressing mouse PD-1 have been previously described (Jutz et al. Oncotarget, 2017, 8(39):64892-64906; PMID: 29029399). T cell stimulator cells, based on the K562 cell line (K562S), were generated by retrovirally transducing a CD5L-OKT3scFv-CD14 construct encoding an anti-human CD3 single chain fragment fused to human CD14 (Leitner et al. J. Immunol. Methods, 2010, 362(1-2):131-141; PMID: 20858499). K562S stimulate human T cells and T cell lines by ligating their TCR-CD3 complex. In order to separate stimulator cells from reporter cells, K562S were engineered to constitutively express a red fluorescent protein (RFP). […] To confirm cell surface expression of respective molecules, a PE-conjugated anti-mPD-1 antibody (29F.1A12) from Biolegend (San Diego, CA) was used. Membrane-bound anti-CD3 fragment on K562S cells was detected with a PE-conjugated goat-anti-mouse IgG (H+L) antibody (Jackson ImmunoResearch, West Grove, PA). […] Data was analysed using FlowJo software (version 10.0.8., Tree Star, Ashland, OR) and Graphpad Prism (version 5, GraphPad Software, Inc., La Jolla, CA). […]

[3] = molecular target: PD1 (SEQ ID NO:1) conjugated to a His tag (Homo sapiens, UniProt Q15116); experiment: ELISA of anti-PD1 antibody titre in immunised rabbits on PD1 coated plates; type: binding; settings: for anti-PD1 antibody response / titre raised in immunised rabbits (in words): rabbits immunised with KLH-conjugated peptide in Freund's adjuvant
Sequence of PD1 (SEQ ID NO:1) conjugated to a His tag (Q15116 25-170): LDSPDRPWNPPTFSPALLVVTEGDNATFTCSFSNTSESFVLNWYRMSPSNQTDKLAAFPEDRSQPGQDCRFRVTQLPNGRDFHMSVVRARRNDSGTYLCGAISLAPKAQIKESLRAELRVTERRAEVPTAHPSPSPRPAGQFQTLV
Method: Approximately 250-500 μg of each KLH-conjugated peptide fragment was diluted with saline and subsequently emulsified in complete or incomplete Freund's adjuvant at a mass ratio of 1:1. The emulsified solution was administered to rabbits by subcutaneous injection around the shoulders and intramuscular injection into the legs in accordance with the following immunization protocol: • i. Day 00—Serum collected 2 ml (for 0.5-1.0 ml pre-immune serum; • ii. Day 01—1st-immunization, complete Freund's adjuvant, 500 μg peptide fragment; • iii. Day 15—2nd-immunization, complete Freund's adjuvant, 500 μg peptide fragment; • iv. Day 29—3rd-immunization, incomplete Freund's adjuvant, 250 μg peptide fragment; • v. Day 35—Serum collected, 2-3 ml for assessment of anti-PD1 antibody titre by ELISA; • vi. Day 36—4th-immunization, incomplete Freund's adjuvant, 250 μg peptide fragment (optional); • vii. Day 43—5th-immunization, incomplete Freund's adjuvant. 250 μg peptide fragment (optional); • viii. Day 50—6th-immunization, incomplete Freund's adjuvant 250 μg peptide fragment (optional); • ix. Day 57—7th-immunization, incomplete Freund's adjuvant 250 μg peptide fragment (optional); • x. Day 63—Blood sample is collected from the immunised rabbits. B. Assessment of Anti-PDJ Antibody Titre in Immunised Rabbits by ELISA
An enzyme-linked immunosorbent assays (ELISA) was used to measure the anti-PD1 antibody titre in the blood samples collected from the immunized rabbits. Briefly, microtiter plates were coated with PD1 (SEQ ID NO:1) conjugated to a His tag. After blocking the wells of the microtiter plates with BSA to minimise non-specific binding, diluted sera from the immunized rabbits were added to the plates and incubated on a shaker for around 1 hr at 20° C. (or alternatively overnight at 4° C.). The plates were then washed four times with PBS/0.1% v/v Tween 20 and excess wash buffer was removed from each well.
Approximately 100 μL of a horseradish peroxidase-labeled anti-rabbit antibody was then added to each well and incubated for around 1 hr at 20° C. The plates were then washed four times with PBS/0.1% v/v Tween 20 and excess wash buffer was removed from each well. The plates were then washed twice with PBS only, to remove traces of Tween remaining from the washing buffer.
To detect the presence of horseradish peroxidase-labeled, anti-rabbit antibody, 100 μL of 1-Step™ ABTS (Pierce Cat. No. 37615) was added to each well and incubated for up to 45 min at 20° C. The absorbance of any colour change in each well was read using a microtitre Titertek Multiskan MC plate reader in the dual wavelength mode at 405 nm against a reference wavelength of 492 nm and compared to appropriate negative controls, such as the colour change observed in a well to which no PD1 was added, to which no immunised rabbit sera was added and/or to which no horseradish peroxidase-labeled, anti-rabbit antibody was added.
Approximately 250-500 μg of each KLH-conjugated fusion peptides were diluted with saline and subsequently emulsified in complete or incomplete Freund's adjuvant at a mass ratio of 1:1. The emulsified solutions were administered to rabbits by subcutaneous injection around the shoulders and intramuscular injection into the legs in accordance with the immunization protocol of Example 2, above.
An enzyme-linked immunosorbent assays (ELISA) was used to measure the anti-PD1 antibody titre in the blood samples collected from the immunized rabbits, in accordance with the methodology set out in Example 2 above. The absorbance readings from the ELISA assay are shown in Table 8, below (SEQ TD NO:9 is underlined): […]

[4] = tested on: PD1 protein from other species—mouse, rat, Rhesus monkey, Cynomolgus monkey and canine; experiment: Cross-reactivity ELISAs, summary over species; type: binding; settings: for cross-reactivity of affinity-purified anti-PD1 antibodies from animals immunised with the peptide with PD1 protein from other species: mouse, rat, Rhesus monkey, Cynomolgus monkey and canine
Method: To assess whether or not the anti-human PD1 antibodies raised in the immunised rabbits would cross-react with PD1 of other species, the anti-PD1 antisera from the Examples 7 and 8, above, were screened in an ELISA assay for binding to mouse, rhesus monkey, canine and rat PD1 proteins.
A further ELISA assay was performed to make a direct comparison of the cross-reactivity of anti-human PD1 antibodies raised in the immunised rabbits (Rabbits 1 and 2) to PD1 proteins of different species.

Sequence	reactivity to the rat anti-mouse PD1 monoclonal antibody [1]	inhibition of binding of anti-mouse PD1 mAb to mPD1-positive Jurkat T cells [2]	anti-PD1 antibody titre compared to the other peptide sequences ([3]; immunised rabbits)	anti-PD1 antibody response / titre raised in immunised rabbits (in words) [3]	species of greatest cross-reactivity of the anti-PD1 antibodies raised with the peptide [4]	cross-reactivity of affinity-purified anti-PD1 antibodies from animals immunised with the peptide with PD1 protein from other species [4]
ISLHPKAKIEESPGA (listed as Mus musculus) [JT-mPD1, amino acid residues 126-140 of mouse PD1 (Uniprot Q02242)]	reactive	dose-dependently inhibited; also recorded: inhibited dose-dependently	–	–	–	–
GWFLDSPDRPWN (listed as Homo sapiens) [SEQ ID NO:9]	–	–	highest anti-PD1 antibody titre; also recorded: higher anti-PD1 antibody titre	raising an anti-PD1 antibody response; also recorded: sufficient anti-PD1 antibody titres	greatest cross-reactivity to PD1 protein from Rhesus and Cynomolgus monkeys	at least some cross-reactivity
LAAFPEDRSQPG (listed as Homo sapiens) [SEQ ID NO:28]	–	–	–	raising an anti-PD1 antibody response; also recorded: sufficient anti-PD1 antibody titres	greatest cross-reactivity to PD1 protein from Rhesus and Cynomolgus monkeys	at least some cross-reactivity
